Laboratory results published in PMC12442639, “A Two‐Protein Chemoreceptor Complex Regulates Oxygen Thresholds in Bacterial Magneto‐Aerotaxis” (Advanced Science, 2025).

Molecular target: T1, CetB2 (His6-CetB2) (Magnetospirillum gryphiswaldense, UniProt A0ACM8ULG3)
T1 construct: N-terminal His6 tag (pET28a), expressed in E. coli Rosetta(DE3) pLysSRARE, Ni-agarose purified; predicted FAD-site residues His54, Asn55, Arg58, Phe67, Trp71, Asn86, Val100, Arg117
Test: LC-MS of purified protein; UV/vis spectroscopy; cyclic voltammetry
Assay type: binding
Conditions: non-covalently bound, co-purified FAD; UV/vis in 50 mM Na-phosphate pH 8, 300 mM NaCl, 5% glycerol

T1 sequence (A0ACM8ULG3 entry or part of it): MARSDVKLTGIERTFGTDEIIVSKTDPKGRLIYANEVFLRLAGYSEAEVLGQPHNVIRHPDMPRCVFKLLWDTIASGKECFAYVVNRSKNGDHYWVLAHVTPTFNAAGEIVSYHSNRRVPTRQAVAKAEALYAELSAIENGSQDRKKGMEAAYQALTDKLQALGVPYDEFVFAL

Compound: Cc1cc2nc3c(=O)[nH]c(=O)nc-3n(C[C@H](O)[C@H](O)[C@H](O)COP(=O)(O)OP(=O)(O)OC[C@H]3O[C@@H](n4cnc5c(N)ncnc54)[C@H](O)[C@@H]3O)c2cc1C [FAD, flavin adenine dinucleotide]
- LC-MS of purified protein; UV/vis spectroscopy; cyclic voltammetry: indicates that FAD was non‐covalently bound to the protein and released during chromatographic separation
